What was measured:
[1] = biological target: T1, Substance-K receptor (Cavia porcellus) (UniProt Q64077); assay: Antagonist Activity of compound (30 nM) at Tachykinin receptor 2 at guinea pig trachea in the presence of P-Ala8-NKA[4-IO] as agonist; format: functional
T1 sequence (whole entry): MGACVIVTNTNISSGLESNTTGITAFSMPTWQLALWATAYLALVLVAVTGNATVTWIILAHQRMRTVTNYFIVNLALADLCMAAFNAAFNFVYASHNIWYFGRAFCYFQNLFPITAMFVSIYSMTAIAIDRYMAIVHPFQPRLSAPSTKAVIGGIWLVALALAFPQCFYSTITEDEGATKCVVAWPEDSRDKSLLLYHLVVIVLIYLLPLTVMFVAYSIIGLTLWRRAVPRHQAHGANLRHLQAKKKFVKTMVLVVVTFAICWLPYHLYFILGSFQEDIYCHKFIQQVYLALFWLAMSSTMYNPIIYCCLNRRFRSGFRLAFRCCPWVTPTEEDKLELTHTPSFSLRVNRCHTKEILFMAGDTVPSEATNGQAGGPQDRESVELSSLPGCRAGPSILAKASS

[2] = biological target: T1, Substance-K receptor (Cavia porcellus); assay: Antagonist Activity of compound (100 nM) at Tachykinin receptor 2 at guinea pig trachea in the presence of P-Ala8-NKA[4-IO] as agonist; format: functional
Substance-K receptor = biological target: T2, Substance-K receptor (Cavia porcellus, UniProt Q64077); assay: Compound was evaluated for antagonistic activity towards Tachykinin receptor 2 at guinea pig trachea; format: functional, tissue-based; settings: read-out: pA2 (converted)
T2 sequence (Q64077 whole entry): T1 sequence (whole entry)

[3] = biological target: T1, Substance-K receptor (Cavia porcellus); assay: Antagonist Activity of compound (10 nM) at Tachykinin receptor 2 at guinea pig trachea in the presence of P-Ala8-NKA[4-IO] as agonist; format: functional

- Emax [1]: 90%
- Emax [2]: 98%
- Kb (Substance-K receptor): 23.4 nM
- Emax [3]: 93%
Compound: CSCC[C@@H]1NC(=O)C(CC(C)C)NC(=O)C2CNC(=O)C[C@H](NC1=O)C(=O)N[C@@H](Cc1c[nH]c3ccccc13)C(=O)NC(Cc1ccccc1)C(=O)N2 (single isomer, unassigned)
